Data from the supplement of paper PMC4977894.
± gives the standard deviation of the averaged measurements.

Columns and labels:
[1] = tested on: Homo sapiens (human subject panel, olfactory perception); assay: perceived odor pleasantness rating (rating 0-100); higher = more pleasant
Description: (§1)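 Human olfactory psychophysics. 55 healthy subjects (after excluding 6 low performers) sniffed 1 mL of each odorant diluted in paraffin oil (vials, two dilutions per molecule, 20 molecules presented twice). Each subject rated intensity, pleasantness and familiarity on a 0-100 slider, starting at 50 and required to move. Ratings were given only when the subject reported detecting a smell; per-subject ratings are averaged over subjects.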

[2] = tested on: Homo sapiens (human subject panel, olfactory perception); assay: perceived odor familiarity rating (rating 0-100); higher = more familiar
Description: as §1

[3] = tested on: Homo sapiens (human subject panel, olfactory perception); assay: perceived odor intensity rating (rating 0-100); higher = stronger perceived smell
Description: as §1

[4] = odor dilution in paraffin oil: 1/10
[5] = odor dilution in paraffin oil: 1/1,000
[6] = odor dilution in paraffin oil: 1/100,000
[7] = odor dilution in paraffin oil: 1/10,000,000

Row | SMILES | perceived odor pleasantness rating [1, 4] | perceived odor pleasantness rating [1, 5] | perceived odor familiarity rating [2, 4] | perceived odor familiarity rating [2, 5] | perceived odor intensity rating [3, 4] | perceived odor intensity rating [3, 5] | perceived odor pleasantness rating [1, 6] | perceived odor familiarity rating [2, 6] | perceived odor intensity rating [3, 6] | perceived odor pleasantness rating [1, 7] | perceived odor familiarity rating [2, 7] | perceived odor intensity rating [3, 7]
1 | C1CCCCC1 [Cyclohexane] | 48.2 ± 27 | 40.5 ± 24 | 55.1 ± 29 | 51.6 ± 32 | 57.4 ± 34 | 49 ± 34 | – | – | – | – | – | –
2 | CCCCCCCCC(C)=O [2-decanone] | – | 49.5 ± 25 | – | 44 ± 29 | – | 44.8 ± 30 | 51.2 ± 26 | 30.3 ± 23 | 24.6 ± 26 | – | – | –
3 | c1cscn1 [Thiazole] | – | 43.2 ± 24 | – | 41.3 ± 29 | – | 25.1 ± 27 | 45.5 ± 21 | 27.2 ± 25 | 18.8 ± 22 | – | – | –
4 | CCCC(C)C(=O)O (configuration not stated) [2-Methylpentanoic acid] | – | – | – | – | – | – | 50 ± 25 | 37.4 ± 31 | 31.7 ± 30 | 37.9 ± 24 | 38 ± 29 | 35.6 ± 33
5 | CCCCCCOC(=O)CCC [hexyl butyrate] | – | 34.1 ± 25 | – | 44.1 ± 30 | – | 45.6 ± 34 | 43.9 ± 16 | 35.8 ± 27 | 19.4 ± 21 | – | – | –
6 | CCCCCCC(=O)O [Heptanoic Acid] | – | 21.5 ± 20 | – | 43.8 ± 31 | – | 77.5 ± 23 | 30.4 ± 25 | 36.5 ± 28 | 49 ± 32 | – | – | –
7 | C=CCOC(=O)CCC1CCCCC1 [Allyl cyclohexanepropionate] | – | 60.9 ± 23 | – | 58.7 ± 29 | – | 57.9 ± 25 | 54.7 ± 24 | 32.5 ± 27 | 30.6 ± 30 | – | – | –
8 | CCC(=O)O [propionic acid] | – | – | – | – | – | – | 39.5 ± 25 | 35.3 ± 31 | 34.4 ± 33 | 45.2 ± 24 | 36.8 ± 25 | 20.5 ± 27
9 | Cc1ccc(C(C)C)c(O)c1 [thymol] | – | 41.8 ± 27 | – | 55.8 ± 32 | – | 71.1 ± 23 | 48.5 ± 24 | 49.7 ± 29 | 39.2 ± 30 | – | – | –
10 | CCC1(O)C2(C)CCC(C2)C1(C)C (configuration not stated) [2-Ethylfenchol] | – | 37.2 ± 27 | – | 58.9 ± 33 | – | 73.6 ± 27 | 45.5 ± 25 | 47.7 ± 35 | 39.1 ± 34 | – | – | –
11 | CC(=O)c1cccs1 [2-Acetylthiophene] | – | – | – | – | – | – | 46 ± 23 | 42.4 ± 30 | 43.9 ± 29 | 52.4 ± 25 | 44.9 ± 30 | 25.3 ± 28
12 | CC(=O)OC1CC(C)CCC1C(C)C [L-Menthyl acetate] | 61.5 ± 25 | 53.4 ± 23 | 57.8 ± 31 | 45.6 ± 25 | 63.7 ± 26 | 15.4 ± 24 | – | – | – | – | – | –
13 | CC(=O)OCC1CCCO1 (configuration not stated) [Tetrahydrofurfuryl acetate] | – | 40.6 ± 26 | – | 42.4 ± 28 | – | 55.6 ± 24 | 49.1 ± 26 | 27.8 ± 24 | 17 ± 24 | – | – | –
14 | NCCC(=O)O [beta-Alanine] | 50.1 ± 22 | 50.2 ± 26 | 35.9 ± 30 | 40.9 ± 30 | 38.4 ± 28 | 33.9 ± 25 | – | – | – | – | – | –
15 | CC(C)CC(=O)O [isovaleric acid] | – | – | – | – | – | – | 12.9 ± 19 | 54.3 ± 33 | 82 ± 20 | 20.7 ± 22 | 48 ± 31 | 58.5 ± 30
16 | CCCCCCCCCCCCCC(=O)OCC [Ethyl myristate] | 50.6 ± 26 | 42.8 ± 25 | 40.5 ± 27 | 38.1 ± 33 | 39.1 ± 28 | 20.7 ± 24 | – | – | – | – | – | –

Row | SMILES | perceived odor pleasantness rating [1, 4] | perceived odor pleasantness rating [1, 5] | perceived odor familiarity rating [2, 4] | perceived odor familiarity rating [2, 5] | perceived odor intensity rating [3, 4] | perceived odor intensity rating [3, 5] | perceived odor pleasantness rating [1, 6] | perceived odor familiarity rating [2, 6] | perceived odor intensity rating [3, 6] | perceived odor pleasantness rating [1, 7] | perceived odor familiarity rating [2, 7] | perceived odor intensity rating [3, 7]
17 | CC12CCC(CC1=O)C2(C)C (configuration not stated) [Camphor] | – | 49.5 ± 25 | – | 54.4 ± 30 | – | 57.4 ± 30 | 53.1 ± 22 | 31.3 ± 29 | 17.3 ± 20 | – | – | –
18 | CCc1ccccc1O [2-ethylphenol] | – | 29.2 ± 27 | – | 64.4 ± 28 | – | 83.3 ± 18 | 33.2 ± 24 | 51.6 ± 33 | 67.7 ± 27 | – | – | –
19 | CC(=O)OCc1ccccc1 [benzyl acetate] | – | 60.4 ± 25 | – | 52.3 ± 33 | – | 65.8 ± 29 | 54.7 ± 20 | 42.3 ± 27 | 36.3 ± 28 | – | – | –
20 | CC(=O)c1cccnc1 [3-Acetylpyridine] | – | 32.3 ± 29 | – | 48.2 ± 33 | – | 76.2 ± 23 | 44.8 ± 29 | 30 ± 31 | 24.6 ± 30 | – | – | –
21 | CCC(C)CO (configuration not stated) [2-Methyl-1-butanol (replicate)] | – | 28 ± 26 | – | 47.1 ± 32 | – | 78.8 ± 18 | 44.4 ± 23 | 37.1 ± 31 | 36.4 ± 31 | – | – | –
22 | COc1ccccc1S [2-Methoxythiophenol] | – | – | – | – | – | – | 15.7 ± 23 | 40.6 ± 34 | 88.2 ± 13 | 52.7 ± 24 | 37.6 ± 30 | 25.8 ± 22
23 | Cc1ccccc1C=O [o-Tolualdehyde] | – | 52.7 ± 30 | – | 58.9 ± 32 | – | 78.1 ± 21 | 60.2 ± 24 | 49.1 ± 31 | 37.2 ± 31 | – | – | –
24 | N[C@@H](CCC(=O)O)C(=O)O [L-Glutamic acid] | 37.1 ± 23 | 47.5 ± 26 | 34.7 ± 30 | 30.3 ± 31 | 52.7 ± 31 | 29.8 ± 27 | – | – | – | – | – | –
25 | CCOc1ccc(C=O)cc1 [4-Ethoxybenzaldehyde] | – | 67.4 ± 26 | – | 58.5 ± 30 | – | 65.2 ± 25 | 66.4 ± 24 | 47.2 ± 31 | 34.2 ± 28 | – | – | –
26 | CCCC=O [butyraldehyde] | – | 17.7 ± 18 | – | 51.1 ± 29 | – | 83.4 ± 15 | 32.2 ± 21 | 41.8 ± 31 | 51.9 ± 28 | – | – | –
27 | CCc1nccnc1C(C)=O [2-Acetyl-3-ethylpyrazine] | – | 25.7 ± 23 | – | 57.2 ± 29 | – | 79.4 ± 20 | 41.2 ± 23 | 52.4 ± 30 | 46.3 ± 30 | – | – | –
28 | COc1cc(C=O)ccc1OC(C)=O [Vanillin Acetate] | 74.3 ± 22 | 72.5 ± 22 | 69.6 ± 28 | 65.3 ± 28 | 64.3 ± 26 | 54.6 ± 27 | – | – | – | – | – | –
29 | Cc1ccccc1S [o-Toluenethiol] | – | – | – | – | – | – | 24.8 ± 24 | 54.8 ± 28 | 72.8 ± 24 | 47.9 ± 18 | 36.9 ± 24 | 30.2 ± 31
30 | CCOC(=O)CC [ethyl propionate] | – | 39.9 ± 31 | – | 50.7 ± 31 | – | 75.7 ± 24 | 31.3 ± 30 | 44.5 ± 34 | 53.9 ± 32 | – | – | –
31 | C=CCc1ccc(OC(C)=O)c(OC)c1 [Eugenyl Acetate] | – | 63.9 ± 23 | – | 61.4 ± 28 | – | 52.3 ± 30 | 58 ± 25 | 37.7 ± 30 | 21.1 ± 28 | – | – | –
32 | CCCCCC=O [Hexanal] | – | – | – | – | – | – | 20.4 ± 20 | 41.5 ± 33 | 78.2 ± 21 | 47.2 ± 18 | 29 ± 26 | 15 ± 16
